From PubChem BioAssay AID330 (DTP/NCI, 2004)
Values joined by “and” are separate entries in the source; they are usually repeats but may differ in a detail not shown here. Identical values can stand only once. Inconclusive results and toxic doses are left out.

System: P388 leukemia ip, CD2F1 mice, survival T/C
Assay: NCI In Vivo Anticancer Drug Screen. Data for tumor model P388 Leukemia (intraperitoneal) in CD2F1 (CDF1) mice
Conditions: endpoint: median survival time, higher = longer survival
Outline: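 Mice carrying the transplanted tumor received test compound or vehicle. Survival was recorded in each group, and the value is the treated-group measurement divided by that of the vehicle-treated control group.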

[1] = dose: 60.0 mg/kg/injection, schedule: Q01DX005 (ip), vehicle: saline with Tween-80
[2] = dose: 120.0 mg/kg/injection, schedule: Q01DX005 (ip), vehicle: saline with Tween-80
[3] = dose: 240.0 mg/kg/injection, schedule: Q01DX005 (ip), vehicle: saline with Tween-80
[4] = dose: 50.0 mg/kg/injection, schedule: Q01DX005 (ip), vehicle: saline with Tween-80
[5] = dose: 100.0 mg/kg/injection, schedule: Q01DX005 (ip), vehicle: saline with Tween-80
[6] = dose: 200.0 mg/kg/injection, schedule: Q01DX005 (ip), vehicle: saline with Tween-80
[7] = dose: 50.0 mg/kg/injection, schedule: Q01DX009 (ip), vehicle: saline with Tween-80
[8] = dose: 100.0 mg/kg/injection, schedule: Q01DX009 (ip), vehicle: saline with Tween-80
[9] = dose: 200.0 mg/kg/injection, schedule: Q01DX009 (ip), vehicle: saline with Tween-80
[10] = dose: 50.0 mg/kg/injection, schedule: Q01DX005 (ip), vehicle: Klucel (hydroxypropylcellulose) (HPC)
[11] = dose: 100.0 mg/kg/injection, schedule: Q01DX005 (ip), vehicle: Klucel (hydroxypropylcellulose) (HPC)
[12] = dose: 200.0 mg/kg/injection, schedule: Q01DX005 (ip), vehicle: Klucel (hydroxypropylcellulose) (HPC)
[13] = dose: 50.0 mg/kg/injection, schedule: Q04DX003 (ip), vehicle: saline with Tween-80
[14] = dose: 100.0 mg/kg/injection, schedule: Q04DX003 (ip), vehicle: saline with Tween-80
[15] = dose: 100.0 mg/kg/injection, schedule: Q04DX003 (ip), vehicle: Klucel (hydroxypropylcellulose) (HPC)
[16] = dose: 200.0 mg/kg/injection, schedule: Q04DX003 (ip), vehicle: Klucel (hydroxypropylcellulose) (HPC)
[17] = dose: 200.0 mg/kg/injection, schedule: Q04DX003 (ip), vehicle: saline with Tween-80
[18] = dose: 400.0 mg/kg/injection, schedule: Q04DX003 (ip), vehicle: saline with Tween-80
[19] = dose: 100.0 mg/kg/injection, schedule: Q04DX003 (ip), vehicle: saline
[20] = dose: 200.0 mg/kg/injection, schedule: Q04DX003 (ip), vehicle: saline

COc1ccc(NC(=O)C/C(C)=C2/C(=O)NN(c3ccccc3)C2=O)cc1
T/C [1]: 104 % of control
T/C [2]: 97 % of control
T/C [3]: 92 % of control

C#Cc1cccc(N=Cc2cc(Cl)cc(C)c2O)c1
T/C [4]: 88 % of control
T/C [5]: 91 % of control
T/C [6]: 102 % of control

CC(C)C(C#N)(C(=O)O)C(C)C
T/C [7]: 95 % of control
T/C [8]: 92 % of control

Cc1ccc2c(c1)C1(SC(C)C(=O)N1c1ccc(Cl)cc1)C(=O)N2 (centres undefined)
T/C (dose: 30.0 mg/kg/injection, schedule: Q01DX005 (ip), vehicle: saline with Tween-80): 103 % of control
T/C [1]: 114 % of control and 121 % of control
T/C [2]: 119 % of control

O=C(CCCC(=O)Nc1ccc2[nH]c3ccccc3c(=O)c2c1)Nc1ccc2[nH]c3ccccc3c(=O)c2c1
T/C (dose: 60.0 mg/kg/injection, schedule: Q01DX005 (ip), vehicle: Klucel (hydroxypropylcellulose) (HPC)): 92 % of control
T/C (dose: 120.0 mg/kg/injection, schedule: Q01DX005 (ip), vehicle: Klucel (hydroxypropylcellulose) (HPC)): 94 % of control

CCOC(=O)C1=C(O)C2(CC(C)=C(C)CS2=O)SC1=Nc1ccccc1 (centres undefined)
T/C [1]: 96 % of control
T/C [2]: 107 % of control
T/C [3]: 104 % of control

COCCCNC(=S)N/N=C/c1cccc(OC)c1O
T/C [7]: 101 % of control
T/C [8]: 111 % of control
T/C [9]: 88 % of control

O=NNc1nc2ccccc2[nH]1
T/C (dose: 3.12 mg/kg/injection, schedule: Q01DX009 (ip), vehicle: water): 99 % of control
T/C (dose: 6.25 mg/kg/injection, schedule: Q01DX009 (ip), vehicle: water): 103 % of control
T/C (dose: 12.5 mg/kg/injection, schedule: Q01DX009 (ip), vehicle: water): 109 % of control
T/C (dose: 25.0 mg/kg/injection, schedule: Q01DX009 (ip), vehicle: water): 103 % of control and 98 % of control
T/C (dose: 50.0 mg/kg/injection, schedule: Q01DX009 (ip), vehicle: water): 100 % of control and 97 % of control
T/C (dose: 100.0 mg/kg/injection, schedule: Q01DX009 (ip), vehicle: water): 97 % of control
T/C (dose: 200.0 mg/kg/injection, schedule: Q01DX009 (ip), vehicle: water): 91 % of control

CC1(C)OC(=O)C(CCc2ccncc2)(CCc2ccncc2)C(=O)O1
T/C [7]: 115 % of control
T/C [8]: 104 % of control
T/C [9]: 106 % of control

O=c1oc(-c2nc3sc4c(c3c(=O)o2)CCCC4)nc2sc3c(c12)CCCC3
T/C [10]: 100 % of control
T/C [11]: 100 % of control
T/C [12]: 93 % of control

COc1cc(/C=C2\C(=O)C=C(C)CC2(C)C)ccc1O
T/C [13]: 95 % of control
T/C [14]: 90 % of control

NC(=S)c1cccc(-c2ccccn2)n1
T/C [15]: 102 % of control
T/C [16]: 103 % of control

O=C(O)/C=C/C(=O)OCCBr
T/C [7]: 104 % of control
T/C [13]: 120 % of control
T/C [8]: 100 % of control
T/C [14]: 120 % of control
T/C [9]: 95 % of control
T/C [17]: 100 % of control

O=[N+]([O-])c1ccc(S(=O)(=O)O)cc1 (tested in a mixture with another compound)
T/C [14]: 98 % of control
T/C [17]: 101 % of control
T/C [18]: 86 % of control

CCOC(=O)c1ccc(NC(=O)Oc2ccc(C(=O)OC)cc2)cc1
T/C [1]: 103 % of control
T/C [2]: 100 % of control
T/C [3]: 103 % of control

CCOc1ccc2c(c1)n([O-])c1cc(Cl)ccc1[n+]2=O
T/C (dose: 12.5 mg/kg/injection, schedule: Q01DX005 (ip), vehicle: saline with Tween-80): 111 % of control
T/C (dose: 25.0 mg/kg/injection, schedule: Q01DX005 (ip), vehicle: saline with Tween-80): 108 % of control
T/C [4]: 103 % of control and 115 % of control
T/C [5]: 107 % of control

CCCCN(CCCC)CCC(O)c1cc(-c2ccc(C(F)(F)F)cc2)nc(-c2ccc(C(F)(F)F)cc2)c1 (centres undefined)
T/C [7]: 111 % of control
T/C [8]: 106 % of control
T/C [9]: 101 % of control

CC1(C)C(c2ccccc2)C1(Cl)Cl (centres undefined)
T/C (dose: 100.0 mg/kg/injection, schedule: Q04DX002 (ip), vehicle: saline with Tween-80): 99 % of control
T/C (dose: 200.0 mg/kg/injection, schedule: Q04DX002 (ip), vehicle: saline with Tween-80): 93 % of control

CCS(=O)(=O)/C=C\S(=O)(=O)CC
T/C (dose: 1.56 mg/kg/injection, schedule: Q04DX003 (ip), vehicle: Klucel (hydroxypropylcellulose) (HPC)): 100 % of control
T/C (dose: 3.12 mg/kg/injection, schedule: Q04DX003 (ip), vehicle: Klucel (hydroxypropylcellulose) (HPC)): 98 % of control
T/C (dose: 6.25 mg/kg/injection, schedule: Q04DX003 (ip), vehicle: Klucel (hydroxypropylcellulose) (HPC)): 100 % of control

C/C(=C\C(=O)c1ccccc1)Nc1ccc(Cl)cc1
T/C (dose: 25.0 mg/kg/injection, schedule: Q01DX009 (ip), vehicle: saline with Tween-80): 108 % of control
T/C [7]: 92 % of control
T/C [8]: 89 % of control
T/C [9]: 99 % of control

CCNCCn1cccc1
T/C (dose: 50.0 mg/kg/injection, schedule: Q04DX003 (ip), vehicle: saline): 91 % of control
T/C [19]: 95 % of control
T/C [20]: 95 % of control

CCCCCCCCCCCCN1C(C)=CS/C1=C\C=C\c1scc(C)[n+]1CCCCCCCCCCCC
T/C (dose: 0.75 mg/kg/injection, schedule: Q01DX005 (ip), vehicle: saline with Tween-80): 110 % of control
T/C (dose: 3.0 mg/kg/injection, schedule: Q01DX005 (ip), vehicle: saline with Tween-80): 119 % of control
T/C (dose: 3.12 mg/kg/injection, schedule: Q04DX002 (ip), vehicle: saline with Tween-80): 150 % of control
T/C (dose: 6.25 mg/kg/injection, schedule: Q04DX002 (ip), vehicle: saline with Tween-80): 150 % of control and 157 % of control
T/C (dose: 12.5 mg/kg/injection, schedule: Q04DX002 (ip), vehicle: saline with Tween-80): 160 % of control and 163 % of control

C=C1CC2(CCCCC2c2ccccc2)OC1=O (centres undefined)
T/C (dose: 100.0 mg/kg/injection, schedule: Q04DX002 (ip), vehicle: Klucel (hydroxypropylcellulose) (HPC)): 97 % of control
T/C (dose: 200.0 mg/kg/injection, schedule: Q04DX002 (ip), vehicle: Klucel (hydroxypropylcellulose) (HPC)): 103 % of control
T/C (dose: 400.0 mg/kg/injection, schedule: Q04DX002 (ip), vehicle: Klucel (hydroxypropylcellulose) (HPC)): 103 % of control

CNC(=O)Oc1cccc(N=CN(C)C)c1
T/C (dose: 0.93 mg/kg/injection, schedule: Q01DX005 (ip), vehicle: saline): 97 % of control
T/C (dose: 1.87 mg/kg/injection, schedule: Q01DX005 (ip), vehicle: saline): 101 % of control
T/C (dose: 3.75 mg/kg/injection, schedule: Q01DX005 (ip), vehicle: saline): 95 % of control

CC1=C(/C=C/C(C)=C/C=C/C(C)=C/C(=O)O)C(C)(C)CCC1
T/C (dose: 32.0 mg/kg/injection, schedule: Q01DX005 (ip), vehicle: saline with Tween-80): 119 % of control
T/C (dose: 64.0 mg/kg/injection, schedule: Q01DX005 (ip), vehicle: saline with Tween-80): 111 % of control
T/C [14]: 105 % of control
T/C (dose: 128.0 mg/kg/injection, schedule: Q01DX005 (ip), vehicle: saline with Tween-80): 103 % of control
T/C [17]: 115 % of control

CC(=O)Oc1ccccc1C(=O)OC1CC2CCC1(C)C2(C)C (centres undefined)
T/C [4]: 92 % of control
T/C [5]: 97 % of control
T/C [6]: 98 % of control

CCN(CC)CCNC(=O)c1ccc2c(c1)C(=O)c1ccccc1C2=O
T/C [19]: 108 % of control
T/C [20]: 119 % of control

CCOC(=O)c1cnc(SC)n(-c2c(Cl)cccc2Cl)c1=O
T/C [10]: 98 % of control
T/C [11]: 97 % of control
T/C [12]: 99 % of control

O=C(O)CCCC12CCC(CCCC(=O)O)(CC1)CC2
T/C [15]: 99 % of control
T/C [16]: 97 % of control
T/C (dose: 400.0 mg/kg/injection, schedule: Q04DX003 (ip), vehicle: Klucel (hydroxypropylcellulose) (HPC)): 104 % of control

Cc1cnc(C#N)c(Cl)n1
T/C [8]: 100 % of control
T/C [14]: 110 % of control
T/C [9]: 115 % of control
T/C [17]: 110 % of control
T/C [18]: 100 % of control
